According to patent US4968455A, “Tris(triorganotin) esters of trimeric fatty acids” (Schering Aktiengesellschaft, priority 1984, dated 1990):

Tests used:
Bacillus mesentericus = assay: Overlay test, zones of inhibition, Bacillus mesentericus; type: cell-based; settings: two days at 37° C.
[1] = Evaporation behavior: thermobalance tests; type: physicochemical; settings: products of Examples 1 and 2 based on 100%
Method: (§1) Weight losses were determined after one week storage in a circulating-air dryer at 65° C. and tests with a thermobalance (onset of weight loss, and weight loss at 350° C.) were performed.
(§2) The exact initial weight of the specimens (about 2 g) in glass Petri dishes (about 10 cm in diameter) is determined and the weight loss after treatment is determined by reweighing.

Proteus vulgaris = assay: Overlay test, zones of inhibition, Proteus vulgaris; type: cell-based; settings: two days at 37° C.
Bacillus subtilis = assay: Overlay test, zones of inhibition, Bacillus subtilis; type: cell-based; settings: two days at 37° C.
[2] = Thermal stability, one hour treatment at 180° C. in open glass vessels; type: physicochemical; settings: tributyltin content not determinable
Method: After prior methylation, the content of tributyltin compounds after a one hour treatment at 180° C. in open glass vessels was determined by gas chromatography.

[3] = Evaporation behavior: weight loss after one week storage in a circulating-air dryer at 65° C.; type: physicochemical; settings: products of Examples 1 and 2 based on 100%
Method: as §1, §2

[4] = Water solubility in tap water (one week stirring, chloroform extraction, tin by atomic absorption spectroscopy); type: physicochemical; settings: products of Examples 1 and 2 based on 100%, 10080 min
Method: 1 g of the substance to be tested was mixed in a beaker with 1 liter of tap water by stirring for one week. After settling and decanting, the organotin compounds dissolved in the water were extracted with chloroform. The tin concentrations were determined by atomic absorption spectroscopy.

[5] = 0.10 wt. % tin (impregnating solution: TBTO 0.25; TBTL, TBTN 0.5; Ex. 1 1.0; Ex. 2 1.1 wt. %)
[6] = 0.16 wt. % tin (impregnating solution: TBTO 0.4; TBTL, TBTN 0.8; Ex. 1 1.65; Ex. 2 1.7 wt. %)
[7] = 0.24 wt. % tin (impregnating solution: TBTO 0.6; TBTL, TBTN 1.2; Ex. 1 2.45; Ex. 2 2.6 wt. %)
[8] = 0.40 wt. % tin (impregnating solution: TBTO 1.0; TBTL, TBTN 2.0; Ex. 1 4.1; Ex. 2 4.3 wt. %)

CCC[CH2][Sn]([CH2]CCC)([CH2]CCC)[O][Sn]([CH2]CCC)([CH2]CCC)[CH2]CCC [TBTO, tri-n-butyltin oxide]
Zones of inhibition about the specimens, Bacillus mesentericus (Bacillus mesentericus; [5]): 5 cm^2
Zones of inhibition about the specimens, Bacillus mesentericus (Bacillus mesentericus; [6]): 8 cm^2
Zones of inhibition about the specimens, Bacillus mesentericus (Bacillus mesentericus; [7]): 14 cm^2
Zones of inhibition about the specimens, Bacillus mesentericus (Bacillus mesentericus; [8]): 20 cm^2
Thermobalance: Weight loss at 350° C. ([1]; 350° C.): 80%
Thermobalance: Onset of weight loss [1]: 75 °C
Zones of inhibition about the specimens, Proteus vulgaris (Proteus vulgaris; [5]): 3 cm^2
Zones of inhibition about the specimens, Proteus vulgaris (Proteus vulgaris; [6]): 6 cm^2
Zones of inhibition about the specimens, Proteus vulgaris (Proteus vulgaris; [7]): 9 cm^2
Zones of inhibition about the specimens, Proteus vulgaris (Proteus vulgaris; [8]): 12 cm^2
Zones of inhibition about the specimens, Bacillus subtilis (Bacillus subtilis; [5]): 6 cm^2
Zones of inhibition about the specimens, Bacillus subtilis (Bacillus subtilis; [6]): 13 cm^2
Zones of inhibition about the specimens, Bacillus subtilis (Bacillus subtilis; [7]): 18 cm^2
Zones of inhibition about the specimens, Bacillus subtilis (Bacillus subtilis; [8]): 20 cm^2
weight loss (1 hour at 180° C.) [2]: 98%
Weight loss after 7 days at 65° C. [3]: 27.3%
Water solubility [4]: 24.0 mg/liter of water
